“And” between values parts separate entries of the source, which are not always exact repeats. Equal entries are not always repeated. Where two headings read alike, the source gives them in different places.
Experiments:
[1] = system: P. falciparum K1; set-up: method as in ref 1 and 2 (supplement; main text 47, 48); conditions: Table S1, ± SEM; ref 1 and 2 (supplement; main text 47, 48); cited from earlier work
[2] = system: P. falciparum TM93-C1088; set-up: method as in ref 5 (supplement; main text 63); conditions: atovaquone and CQ resistant; ref 5 (supplement; main text 63); read-out: Antimalarial activities IC50 TM93-C1088; cited from earlier work
[3] = system: P. falciparum D6; set-up: method as in ref 5 (supplement; main text 63); conditions: CQ sensitive; ref 5 (supplement; main text 63); read-out: Antimalarial activities IC50 D6; cited from earlier work
[4] = system: P. falciparum K1; set-up: method as in ref 4 (supplement; main text 62); conditions: Table S2, ± SEM; ref 4 (supplement; main text 62); read-out: Antimalarial activities IC50 K1; cited from earlier work
[5] = system: P. falciparum W2; set-up: method as in ref 4 (supplement; main text 62); conditions: Table S2, ± SEM; ref 4 (supplement; main text 62); read-out: Antimalarial activities IC50 W2; cited from earlier work
[6] = Pharmacokinetics in mice, intravenous administration; type: in vivo, male C57/BL6 mice; conditions: for AUC / V / half-life / clearance: i.v. 10 mg/kg; for AUC: 0 h to last, parent; for V: volume of distribution during elimination phase; for half-life / CLint scaled / clearance: male; for half-life: C57/BL6, iv, mouse plasma; for CLint scaled / clearance: C57/BL6, mouse, plasma, iv, 10 mg/kg; for clearance: total plasma clearance, read-out: CLtot; for DHA detected as a metabolite: mouse PK studies, i.v. and p.o., LC-MS/MS
Procedure: (i) Animals. Healthy male C57/BL6 mice each weighing approximately 25 g were used. The mice maintained at the University of Cape Town animal facility were housed in 27 by 21 by 18 cm cages, under controlled environmental conditions at 22 ± 2°C and a 12-h light/dark cycle. Humidity was monitored and ranged between 55 and 70%. Food and water were available ad libitum. Mice were acclimatized to their environment for 7 days before experiments were initiated.
(iii) Intravenous drug administration. For the intravenous formulations, each of artemether, the amino-artemisinins 5 to 10, and 11-aza-artemisinin 11 (2.5 mg) was dissolved in 1 ml DMSO/PEG/PPG (1:3:6, vol/vol). DMSO was added first, followed by PEG and then PPG. The resulting solutions in the mixture of DMSO, PEG, and PPG (1:3:6, vol/vol) were administered intravenously at a dose of 10 mg/kg (n = 3) via injection into the dorsal penile vein. Mice were anesthetized with an intraperitoneal injection of a saline ketamine/xylazine solution. This consisted of 1 ml ketamine (100 mg/ml), 0.5 ml xylazine (20 mg/ml), and 8.5 ml PBS solution to make a total volume of 10 ml. Dosage of anesthetic preparation for mice was […]; this amounts to a dose of 80 mg/kg ketamine and 10 mg/kg xylazine. The total volume of administration was dose adjusted to 10 mg/kg with an approximate volume of 80 μl, according to the weight of each animal on the morning of dosing. Blood samples for the amino-artemisinins 5 to 8 and 10 were collected via tail-bleeding predose and at 0.08, 0.25, 0.5, 1, 2, and 4 h, and blood samples for the phenylurea 9 and 11-aza-artemisinin 11 were collected at 0.08, 0.5, 1, 2, 4, 8, and 24 h postdose. Samples were all placed in 0.5 ml lithium heparin microvials to prevent blood coagulation. The samples were immediately centrifuged at 5,590 × g for 5 min and the plasma was transferred to new microvials. The plasma samples were stored at −80°C.
Sample extraction. […] The organic layer was then transferred and evaporated under a gentle stream of nitrogen at room temperature for 30 min. The dried samples were reconstituted in mobile phase, and a 5 μl sample was injected for LC-MS/MS analysis. The only exception was the arylurea 10, for which no liquid-liquid extraction was conducted; instead, the 200 μl acetonitrile solution was evaporated under a gentle stream of nitrogen at room temperature. The dried sample was reconstituted in the mobile phase, and a 5 μl sample was injected for LC-MS/MS analysis. The plasma samples for each compound from the in vivo studies were extracted by mixing 350 μl ethyl acetate with 15 μl of plasma sample and 35 μl of universal buffer containing internal standard at pH 8. The samples were vortexed for 1 min and centrifuged for 5 min, and the organic layer was then transferred and evaporated under a gentle stream of nitrogen at room temperature for 30 min. The dried samples were each reconstituted in the mobile phase, and a 5 μl sample was injected for LC-MS/MS analysis.
LC-MS/MS analysis. For all the artemisinins except the arylurea 10, gradient chromatography was performed on a Phenomenex (Torrance, CA, USA) Luna PFP(2) analytical column (100 Å, 5 μm, 2 by 50 mm) and an AB Sciex API 5500 mass spectrometer which was operated at unit resolution in the multiple reaction monitoring (MRM) mode. The HPLC method used was a gradient method with 5 mM ammonium acetate and 0.1% acetic acid in water as the aqueous phase and a mixture of acetonitrile and methanol (1:1 vol/vol) containing 5% of the aqueous phase as the organic phase ([89]). The arylurea 10 was analyzed using a Phenomenex Gemini NX-C18 (5 μm, 2.1 mm by 50 mm) column with an AB Sciex 3200 QTRAP mass spectrometer operated at unit resolution in the MRM mode. The HPLC method used was a gradient method with 5 mM ammonium acetate and 0.1% acetic acid in water as the aqueous phase and a mixture of acetonitrile and methanol (1:1 vol/vol).

[7] = system: Chinese hamster ovary (CHO) cells; conditions: read-out: Cytotoxicity EC50 CHO; MTT, ±SD; ref 1 and 2 (supplement; main text 47, 48); cited from earlier work
[8] = system: P. falciparum W2; set-up: method as in ref 5 (supplement; main text 63); conditions: CQ resistant; ref 5 (supplement; main text 63); read-out: Antimalarial activities IC50 W2; cited from earlier work
[9] = system: P. falciparum NF54; set-up: method as in ref 1 and 2 (supplement; main text 47, 48); conditions: Table S1, ± SEM; ref 1 and 2 (supplement; main text 47, 48); cited from earlier work
[10] = system: P. falciparum 7G8; set-up: method as in ref 5 (supplement; main text 63); conditions: CQ resistant; ref 5 (supplement; main text 63); read-out: Antimalarial activities IC50 7G8; cited from earlier work
[11] = system: liver stage P. berghei ANKA GFP-Luc-SMcon sporozoites; set-up: method as in ref 2 (supplement; main text 48); conditions: ref 2 (supplement; main text 48), cited from earlier work
[12] = system: HepG2; conditions: read-out: Cytotoxicity EC50 HepG2; ref 2 (supplement; main text 48); cited from earlier work
[13] = pH 7.2; cited from earlier work

Row | SMILES | IC50 [1] | IC50 [4] | IC50 [5] | EC50 [7] | IC50 [9] | AUC [6] | V [6] | half-life [6] | CLint scaled [6] | clearance [6] | also measured
1 | C[C@H]1[C@@H](O)O[C@@H]2O[C@@]3(C)CC[C@H]4[C@H](C)CC[C@@H]1[C@@]24OO3 [DHA 2, dihydroartemisinin] | 1.51 ± 0.33 nM | 0.8 ± 0.5 nM | 0.37 ± 0.11 nM | 25200 nM | 2.51 ± 0.19 nM |  |  |  |  |  | IC50 [2]: 1.4 ± 0.4 nM; IC50 [3]: 1.7 ± 0.4 nM; AUC of metabolite ([6]; metabolite formed from i.v. artemether 3, 10 mg/kg): 155 ± 17 min/µmol/L; IC50 [8]: 2.2 ± 0.8 nM; IC50 [10]: 1.3 ± 0.2 nM
2 | C[C@H]1[C@H](N2CCN(C(=O)Nc3ccc(F)cc3)CC2)O[C@@H]2O[C@@]3(C)CC[C@H]4[C@H](C)CC[C@@H]1[C@@]24OO3 [Arylurea 10] | 0.85 ± 0.1 nM |  |  | 204000 nM | 1.3 ± 0.1 nM | 315.9 ± 33 min/µmol/L | 6.92 ± 2.9 L/kg | 1.3 ± 0.3 h | 2940 mL/min/kg | 58.9 ± 3.5 mL/min/kg | IC50 ([11]; 48 h, ± SD): 106 nM; Maximum inhibition % ([11]; at 10 µM): 94.85±2.76%; EC50 [12]: 5160 nM
3 | C[C@@H]1CC[C@H]2[C@@H](C)C(=O)N[C@@H]3O[C@@]4(C)CC[C@@H]1[C@]32OO4 [11-Aza-artemisinin 11, 11-aza-artemisinin] |  | 9.44 ± 2.93 nM | 6.02 ± 1.81 nM |  |  | 462.7 ± 117 min/µmol/L | 19.4 ± 7.5 L/kg | 3.1 ± 0.8 h | 577 mL/min/kg | 75 ± 8.9 mL/min/kg | DHA detected as a metabolite ([6]; listed as 11-Aza-artemisinin): could not be detected; DHA detected as a metabolite ([6]; listed as 11-aza-artemisinin): not detected
4 | C[C@H]1[C@H](NS(N)(=O)=O)O[C@@H]2O[C@@]3(C)CC[C@H]4[C@H](C)CC[C@@H]1[C@@]24OO3 [Sulfamide 7] | 1.78 ± 0.26 nM |  |  | 56000 ± 4600 nM | 3 ± 1 nM | 864.1 ± 213 min/µmol/L | 1.63 ± 0.4 L/kg | 0.6 ± 0.1 h | 189 mL/min/kg | 32.2 ± 6.2 mL/min/kg | aqueous solubility at pH 7.2 [13]: 294 mg/liter and 811 μM; DHA detected as a metabolite [6]: not detected

From article PMC8284440, “Toward New Transmission-Blocking Combination Therapies: Pharmacokinetics of 10-Amino-Artemisinins and 11-Aza-Artemisinin and Comparison with Dihydroartemisinin and Artemether” (Antimicrobial Agents and Chemotherapy, 2021)
